Data: patent US12708630B2, “Combined therapy of 4′-thio-5-aza-2′-deoxycytidine and Venetoclax” (PINOTBIO, INC., priority 2021, dated 2026)

How the values were obtained:
Assay in all cases: drug activity profiling cytotoxicity
Type in all cases: cell-based
639-V = settings: Homo sapiens; 639-V cell line, Bladder; read-out: Aza-T-dCyd IC50
Procedure, shortened: (§1)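 First, 200 cell lines were profiled for sensitivity to Aza-T-dCyd by cytotoxicity; then responses were analysed together with genomic features.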

647-V = settings: Homo sapiens; 647-V cell line, Bladder; read-out: Aza-T-dCyd IC50
Procedure, shortened: as §1

A-253 = settings: Homo sapiens, A253; A-253 cell line, Head and Neck; read-out: Aza-T-dCyd IC50
Procedure, shortened: as §1

A388 = A388 cell line, Skin (Head and Neck); read-out: Aza-T-dCyd IC50
Procedure, shortened: as §1

CGTH-W-1 = settings: Homo sapiens; CGTH-W-1 cell line, Endocrine (Thyroid); read-out: Aza-T-dCyd IC50
Procedure, shortened: as §1

COR-L105 = settings: Homo sapiens; COR-L105 cell line, Lung (NSCLC); read-out: Aza-T-dCyd IC50
Procedure, shortened: as §1

D283 Med = settings: Homo sapiens; D283 Med cell line, CNS (Medulloblastoma); read-out: Aza-T-dCyd IC50
Procedure, shortened: as §1

Daudi = settings: Homo sapiens; Daudi cell line, Burkitt's lymphoma; read-out: Aza-T-dCyd IC50
Procedure, shortened: as §1

FaDu = settings: Homo sapiens; FaDu cell line, Head and Neck; read-out: Aza-T-dCyd IC50
Procedure, shortened: as §1

GA-10 = settings: Homo sapiens; GA-10 cell line, Burkitt's lymphoma; read-out: Aza-T-dCyd IC50
Procedure, shortened: as §1

HT-1197 = settings: Homo sapiens, HT1197; HT-1197 cell line, Bladder; read-out: Aza-T-dCyd IC50
Procedure, shortened: as §1

HT1376 = settings: Homo sapiens, HT-1376; HT1376 cell line, Bladder; read-out: Aza-T-dCyd IC50
Procedure, shortened: as §1

Hs 578T = settings: Homo sapiens; Hs 578T cell line, Breast; read-out: Aza-T-dCyd IC50
Procedure, shortened: as §1

Hs 729 = Hs 729 cell line, Sarcoma; read-out: Aza-T-dCyd IC50
Procedure, shortened: as §1

Hs 821.T = Hs 821.T cell line, Sarcoma; read-out: Aza-T-dCyd IC50
Procedure, shortened: as §1

KATO III = settings: Homo sapiens; KATO III cell line, Stomach; read-out: Aza-T-dCyd IC50
Procedure, shortened: as §1

L-428 = settings: Homo sapiens; L-428 cell line, Hodgkin's lymphoma; read-out: Aza-T-dCyd IC50
Procedure, shortened: as §1

MC116 = settings: Homo sapiens; MC116 cell line, B-cell lymphoma; read-out: Aza-T-dCyd IC50
Procedure, shortened: as §1

MDA MB 415 = settings: Homo sapiens; MDA MB 415 cell line, Breast; read-out: Aza-T-dCyd IC50
Procedure, shortened: as §1

MEG01 = settings: Homo sapiens, MEG-01; MEG01 cell line, CML; read-out: Aza-T-dCyd IC50
Procedure, shortened: as §1

NCI-H69 = settings: Homo sapiens; NCI-H69 cell line, Lung (SCLC); read-out: Aza-T-dCyd IC50
Procedure, shortened: as §1

OE19 = settings: Homo sapiens; OE19 cell line, Head and Neck; read-out: Aza-T-dCyd IC50
Procedure, shortened: as §1

PC-3 = settings: Homo sapiens; PC-3 cell line, Prostate; read-out: Aza-T-dCyd IC50
Procedure, shortened: as §1

RPMI 6666 = settings: Homo sapiens; RPMI 6666 cell line, Hodgkin's lymphoma; read-out: Aza-T-dCyd IC50
Procedure, shortened: as §1

SH-4 = settings: Homo sapiens; SH-4 cell line, Skin (Melanoma); read-out: Aza-T-dCyd IC50
Procedure, shortened: as §1

SKMES1 = settings: Homo sapiens, SK-MES-1; SKMES1 cell line, Lung (NSCLC); read-out: Aza-T-dCyd IC50
Procedure, shortened: as §1

SU-DHL-8 = settings: Homo sapiens; SU-DHL-8 cell line, B-cell lymphoma; read-out: Aza-T-dCyd IC50
Procedure, shortened: as §1

SU.86.86 = settings: Homo sapiens; SU.86.86 cell line, Pancreas; read-out: Aza-T-dCyd IC50
Procedure, shortened: as §1

SW1463 = settings: Homo sapiens; SW1463 cell line, Colon; read-out: Aza-T-dCyd IC50
Procedure, shortened: as §1

WM-266-4 = settings: Homo sapiens; WM-266-4 cell line, Skin (Melanoma); read-out: Aza-T-dCyd IC50
Procedure, shortened: as §1

## Nc1ncn([C@H]2CC(O)[C@@H](CO)S2)c(=O)n1 (stereo partly drawn) [Aza-T-dCyd, 4′-thio-5-aza-2′-deoxycytidine]
639-V
  IC50: 1570 nM
647-V
  IC50: 408 nM
A-253
  IC50: 601 nM
A388
  IC50: 190 nM
CGTH-W-1
  IC50: 143 nM
COR-L105
  IC50: 2240 nM
D283 Med
  IC50: 68.8 nM
Daudi
  IC50: 451 nM
FaDu
  IC50: 208 nM
GA-10
  IC50: 33.5 nM
HT-1197
  IC50: 7130 nM
HT1376
  IC50: 3280 nM
Hs 578T
  IC50: > 10000 nM
Hs 729
  IC50: > 10000 nM
Hs 821.T
  IC50: > 10000 nM
KATO III
  IC50: 807 nM
L-428
  IC50: 365 nM
MC116
  IC50: 29.7 nM
MDA MB 415
  IC50: > 10000 nM
MEG01
  IC50: 1070 nM
NCI-H69
  IC50: > 10000 nM
OE19
  IC50: > 10000 nM
PC-3
  IC50: 441 nM
RPMI 6666
  IC50: 1050 nM
SH-4
  IC50: 698 nM
SKMES1
  IC50: 314 nM
SU-DHL-8
  IC50: 70.6 nM
SU.86.86
  IC50: 508 nM
SW1463
  IC50: 303 nM
WM-266-4
  IC50: 429 nM
